Test results published in patent US20230203041A1, “ANTAGONISTS OF THE ADENOSINE A2A RECEPTOR” (AdoRx Therapeutics Limited, priority 2020, published 2023).
Structures can show the parent of a compound that is named as a salt.

Experiments:
[1] = target: T1, human Adenosine A2a receptor (Homo sapiens, UniProt P29274); experiment: Adenosine receptor TR-FRET binding assay (CA200645 displacement), A2a; details: 100 nM CA200645, CHO cell membranes, 2 hours at room temperature
T1 construct: expressed in transfected cells; host or cells: CHO cell membranes
Method: (§1) All FRET binding experiments were conducted at room temperature in white 384-well plates, in assay binding buffer containing 1×LabMed (Cisbio, France), 100 μg/mL saponin, 1% DMSO and 0.02% pluronic acid. Binding of the fluorescently labelled Adenosine receptor antagonist XAC (CA200645, FRET acceptor) to terbium-labelled A1, A2a, A2b and A3 adenosine receptors (FRET donors) was detected by time-resolved FRET due to the close proximity of the donor and acceptor in a binding event. To investigate the ability of unlabelled test compounds to bind to Adenosine A1, A2a, A2b and A3 receptors, dose response curves were constructed that determined the ability of a range of concentrations to inhibit the binding of 30 nM CA200645 to the A2b receptor and 100 nM CA200645 to the A1, A2a, and A3 receptor.
(§2) Serial dilution (1:3 dilutions) of test compounds in neat DMSO and transfer of a 400 nL sample of test compound into the assay plate was carried out using the Mosquito (TTP Labtech, UK). The compound samples were incubated for 2 hours at room temperature with a fixed concentration of CA200645 defined for each receptor (see above) and CHO cell membranes containing the human Adenosine A1 (0.5 μg/well), A2a (0.3 μg/well), A2b (1 μg/well) or A3 (1 μg/well) receptor in 40 μL of assay buffer. Total and non-specific binding of CA200645 was determined in the absence and presence of 10 μM XAC, respectively. Following 2 hours incubation, the level of CA200645 binding was detected on a Pherastar FSX (BMG Labtech, Germany) using standard TR-FRET settings. The terbium donor was excited with three laser flashes at a wavelength of 337 nm, and donor and acceptor emission was detected at 620 nm and 665 nm wavelengths, respectively. FRET ratios were obtained by multiplying the acceptor/donor ratio value by 10,000. Specific binding was determined by subtracting the non-specific binding FRET ratio from the total binding FRET ratio. Compound IC50 curves were analysed using GraphPad Prism 7.0 (GraphPad, USA) and Ki affinity values were determined from the obtained IC50 values using the method of Cheng and Prusoff.

[2] = target: T2, human Adenosine A2b receptor (Homo sapiens, UniProt P29275); experiment: Adenosine receptor TR-FRET binding assay (CA200645 displacement), A2b; details: 30 nM CA200645, CHO cell membranes, 2 hours at room temperature
T2 construct: expressed in transfected cells; host or cells: CHO cell membranes
T2 sequence (P29275 1-332): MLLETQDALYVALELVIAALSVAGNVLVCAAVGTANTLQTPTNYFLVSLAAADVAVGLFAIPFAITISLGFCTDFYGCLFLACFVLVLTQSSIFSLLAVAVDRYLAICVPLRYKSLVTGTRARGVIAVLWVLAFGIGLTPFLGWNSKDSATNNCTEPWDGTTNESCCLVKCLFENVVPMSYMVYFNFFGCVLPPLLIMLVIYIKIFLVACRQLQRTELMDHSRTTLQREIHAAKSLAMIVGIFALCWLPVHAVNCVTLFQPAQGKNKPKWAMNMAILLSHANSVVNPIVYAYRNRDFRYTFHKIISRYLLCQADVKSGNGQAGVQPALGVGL

[3] = target: T3, human Adenosine A1 receptor (Homo sapiens, UniProt P30542); experiment: Adenosine receptor TR-FRET binding assay (CA200645 displacement), A1
T3 sequence (P30542 1-326): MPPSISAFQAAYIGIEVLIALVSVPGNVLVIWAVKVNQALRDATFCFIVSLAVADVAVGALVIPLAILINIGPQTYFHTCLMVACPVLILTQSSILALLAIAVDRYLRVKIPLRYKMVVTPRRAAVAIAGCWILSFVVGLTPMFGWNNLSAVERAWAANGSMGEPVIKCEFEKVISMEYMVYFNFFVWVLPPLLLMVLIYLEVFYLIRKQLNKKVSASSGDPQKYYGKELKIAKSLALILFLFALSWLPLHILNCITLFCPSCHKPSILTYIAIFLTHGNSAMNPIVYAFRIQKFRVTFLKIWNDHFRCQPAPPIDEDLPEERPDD

[4] = target: T4, human Adenosine A3 receptor (Homo sapiens, UniProt P0DMS8); experiment: Adenosine receptor TR-FRET binding assay (CA200645 displacement), A3
T4 sequence (P0DMS8 1-318): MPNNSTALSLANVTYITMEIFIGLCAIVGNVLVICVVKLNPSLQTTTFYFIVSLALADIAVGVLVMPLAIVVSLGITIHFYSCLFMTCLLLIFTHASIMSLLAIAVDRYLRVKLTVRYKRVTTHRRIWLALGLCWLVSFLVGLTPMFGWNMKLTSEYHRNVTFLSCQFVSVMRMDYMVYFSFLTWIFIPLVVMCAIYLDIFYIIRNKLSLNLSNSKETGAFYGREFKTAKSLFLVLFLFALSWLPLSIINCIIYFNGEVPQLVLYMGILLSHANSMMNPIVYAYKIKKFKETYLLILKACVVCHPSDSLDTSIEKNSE
Method: as §1, §2

T1 sequence (P29274 whole entry): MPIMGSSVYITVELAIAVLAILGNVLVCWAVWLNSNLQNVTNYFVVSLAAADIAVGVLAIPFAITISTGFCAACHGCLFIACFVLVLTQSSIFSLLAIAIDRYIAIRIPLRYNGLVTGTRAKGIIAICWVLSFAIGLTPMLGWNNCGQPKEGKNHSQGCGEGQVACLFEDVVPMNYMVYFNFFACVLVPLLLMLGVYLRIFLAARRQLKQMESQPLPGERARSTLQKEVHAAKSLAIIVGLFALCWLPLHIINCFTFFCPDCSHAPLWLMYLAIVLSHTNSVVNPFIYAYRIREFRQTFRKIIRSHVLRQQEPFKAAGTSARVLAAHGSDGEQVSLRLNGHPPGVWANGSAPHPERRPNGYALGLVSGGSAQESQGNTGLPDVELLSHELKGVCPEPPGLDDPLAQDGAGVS

| Structure (SMILES) | Ki [1] [nM] | Ki [2] [nM] | Ki [3] [nM] | Ki [4] [nM] |
| --- | --- | --- | --- | --- |
| Cc1cc(-c2c(-c3cccc(C#N)c3)nn3ccc(NCC(C)(C)N)nc23)cc(Cl)n1 [Example 4.10, trifluoroacetate] | 3.3 | 12 | 43 | > 1000 |
| Cc1cc(-c2c(-c3cccc(C#N)c3)nn3ccc(NCC4(O)CNC4)nc23)cc(Cl)n1 [Example 4.11, 3-[3-(2-chloro-6-methyl-4-pyridyl)-5-[(3-hydroxyazetidin-3-yl)methylamino]pyrazolo[1,5-a]pyrimidin-2-yl]benzonitrile trifluoroacetate] | 6.8 | 1 | 53 | > 1000 |
| Cc1cc(-c2c(-c3cccc(C#N)c3)nn3ccc(C(=O)NCCC(C)(C)O)nc23)cc(Cl)n1 [Example 5.3] | 0.3 | 20 | 224 | > 1000 |
| Cc1cc(-c2c(-c3cccc(C#N)c3)nn3ccc(C(=O)NCCN4CCN(c5ccccc5)CC4)nc23)cc(Cl)n1 [Example 5.4] | 1.3 | 19 | 107 | > 1000 |
| Cc1cc(-c2c(-c3cccc(C#N)c3)nn3ccc(C(=O)N4CCOCC4)nc23)cc(Cl)n1 [Example 5.7] | 14.8 | 10 | 135 | > 1000 |
| Cc1cc(-c2c(-c3cccc(C#N)c3)nn3ccc(C(N)=O)nc23)cc(C)n1 [Example 5.8, 2-(3-Cyanophenyl)-3-(2,6-dimethyl-4-pyridyl)pyrazolo[1,5-a]pyrimidine-5-carboxamide] | 5.7 | 41 | 418 | > 1000 |

Results, then the compound that gave them:

| Ki [1] [nM] | Ki [2] [nM] | Ki [3] [nM] | Ki [4] [nM] | Structure (SMILES) |
| --- | --- | --- | --- | --- |
| 11.7 | 53 | 664 | > 1000 | Cc1cc(-c2c(-c3cccc(C#N)c3)nn3ccc(C(=O)NCC(C)(C)N)nc23)cc(Cl)n1 [Example 6.1, N-(2-Amino-2-methyl-propyl)-3-(2-chloro-6-methyl-4-pyridyl)-2-(3-cyanophenyl)pyrazolo[1,5-a]pyrimidine-5-carboxamide] |
| 0.3 | 3 | 127 | > 1000 | Cc1cc(-c2c(-c3cccc(C#N)c3)nn3ccc(C(=O)NCC4(O)CCC4)nc23)cc(Cl)n1 [Example 6.3, 3-(2-Chloro-6-methyl-4-pyridyl)-2-(3-cyanophenyl)-N-[(1-hydroxycyclobutyl)methyl]pyrazolo[1,5-a]pyrimidine-5-carboxamide] |
| 0.9 | 7 | 361 | > 1000 | Cc1cc(-c2c(-c3cccc(C#N)c3)nn3ccc(C(=O)NC[C@@H](C)O)nc23)cc(Cl)n1 [Example 6.5, 3-(2-Chloro-6-methyl-4-pyridyl)-2-(3-cyanophenyl)-N-[(2R)-2-hydroxypropyl]pyrazolo[1,5-a]pyrimidine-5-carboxamide] |
| 0.9 | 35 | 390 | > 1000 | Cc1cc(-c2c(-c3cccc(C#N)c3)nn3ccc(C(=O)N[C@H](C)CO)nc23)cc(Cl)n1 [Example 6.6, 3-(2-Chloro-6-methyl-4-pyridyl)-2-(3-cyanophenyl)-N-[(1R)-2-hydroxy-1-methyl-ethyl]pyrazolo[1,5-a]pyrimidine-5-carboxamide] |
| 1.4 | 5 | 174 | > 1000 | Cc1cc(-c2c(-c3cccc(C#N)c3)nn3ccc(C(=O)NCC4(O)COC4)nc23)cc(Cl)n1 [Example 6.7, 3-(2-Chloro-6-methyl-4-pyridyl)-2-(3-cyanophenyl)-N-[(3-hydroxyoxetan-3-yl)methyl]pyrazolo[1,5-a]pyrimidine-5-carboxamide] |
| 8.3 | 39 | 522 | 2550 | Cc1cc(-c2c(-c3cccc(C#N)c3)nn3ccc(C(=O)NS(C)(=O)=O)nc23)cc(Cl)n1 [Example 6.8, 3-(2-Chloro-6-methyl-4-pyridyl)-2-(3-cyanophenyl)-N-methylsulfonyl-pyrazolo[1,5-a]pyrimidine-5-carboxamide] |
| 2.5 | 24 | 581 | > 1000 | Cc1cc(-c2c(-c3cccc(C#N)c3)nn3ccc(C(=O)NCC4CC(O)C4)nc23)cc(Cl)n1 (centres unmarked) [Example 6.10, 3-(2-Chloro-6-methyl-4-pyridyl)-2-(3-cyanophenyl)-N-[(3-hydroxycyclobutyl)methyl]pyrazolo[1,5-a]pyrimidine-5-carboxamide] |
| 3.7 | 6 | 105 | > 1000 | Cc1cc(-c2c(-c3cccc(C#N)c3)nn3ccc(C(=O)NC45CCC(N)(CC4)C5)nc23)cc(Cl)n1 [Example 6.12, N-(4-Aminonorbornan-1-yl)-3-(2-chloro-6-methyl-4-pyridyl)-2-(3-cyanophenyl)pyrazolo[1,5-a]pyrimidine-5-carboxamide] |
| 5.9 | 54 | 346 | > 1000 | Cc1cc(-c2c(-c3cccc(C#N)c3)nn3ccc(C(=O)NC4CN(C)C4)nc23)cc(Cl)n1 [Example 6.16, 3-(2-Chloro-6-methyl-4-pyridyl)-2-(3-cyanophenyl)-N-(1-methylazetidin-3-yl)pyrazolo[1,5-a]pyrimidine-5-carboxamide] |
| 0.5 | 3 | 110 | > 1000 | Cc1cc(-c2c(-c3cccc(C#N)c3)nn3ccc(C(=O)N[C@H]4COC[C@H]4O)nc23)cc(Cl)n1 [Example 6.17, 3-(2-Chloro-6-methyl-4-pyridyl)-2-(3-cyanophenyl)-N-[(3S,4S)-4-hydroxytetrahydrofuran-3-yl]pyrazolo[1,5-a]pyrimidine-5-carboxamide] |
| 2 | 17 | 245 | > 1000 | Cc1cc(-c2c(-c3cccc(C#N)c3)nn3ccc(C(=O)NC45CC(N)(C4)C5)nc23)cc(Cl)n1 [Example 7.1, N-(3-Amino-1-bicyclo[1.1.1]pentanyl)-3-(2-chloro-6-methyl-4-pyridyl)-2-(3-cyanophenyl)pyrazolo[1,5-a]pyrimidine-5-carboxamide] |
| 5.5 | 5 | 612 | > 1000 | Cc1cc(-c2c(-c3cccc(C#N)c3)nn3ccc(C(=O)N[C@H]4CNC[C@@H]4O)nc23)cc(Cl)n1 [Example 7.5, 3-(2-Chloro-6-methyl-4-pyridyl)-2-(3-cyanophenyl)-N-[trans-(3S,4S)-4-hydroxypyrrolidin-3-yl]pyrazolo[1,5-a]pyrimidine-5-carboxamide] |
| 6.8 | 13 | 672 | > 1000 | Cc1cc(-c2c(-c3cccc(C#N)c3)nn3ccc(C(=O)NCC4(O)CCNC4)nc23)cc(Cl)n1 (centres unmarked) [Example 7.6, 3-(2-Chloro-6-methyl-4-pyridyl)-2-(3-cyanophenyl)-N-[(3-hydroxypyrrolidin-3-yl)methyl]pyrazolo[1,5-a]pyrimidine-5-carboxamide] |
| 2.4 | 10 | 160 | > 1000 | Cc1cc(-c2c(-c3cccc(C#N)c3)nn3ccc(C(=O)NC4(C)CCNC4)nc23)cc(Cl)n1 (centres unmarked) [Example 7.8, 3-(2-Chloro-6-methyl-4-pyridyl)-2-(3-cyanophenyl)-N-(3-methylpyrrolidin-3-yl)pyrazolo[1,5-a]pyrimidine-5-carboxamide] |
